Data: ChEMBL document CHEMBL1140726, “Discovery and biological evaluation of 5-aryl-2-furfuramides, potent and selective blockers of the Nav1.8 sodium channel with efficacy in models of neuropathic and inflammatory pain” (J Med Chem, 2008)

What was measured:
[1] = biological target: Sodium channel protein type 10 subunit alpha (Mus musculus, UniProt Q6QIY3); assay: Inhibition of mouse recombinant Nav 1.8 channel expressed in HEK293 cells by isotopic efflux assay; type: cell-based
[2] = biological target: T1, Sodium channel protein type 10 subunit alpha (Homo sapiens, UniProt Q9Y5Y9); assay: Inhibition of human recombinant Nav 1.8 channel expressed in HEK293 cells at 0.03 uM; type: cell-based
[3] = Activity at rat dorsal root ganglion in inactivated state with prepulse voltage of -40 mV assessed as blockade of TTx-resistant sodium current at 0.003 uM by whole-cell patch clamp technique; type: functional
[4] = biological target: T1, Sodium channel protein type 10 subunit alpha; assay: Activity at human recombinant Nav 1.8 channel expressed in HEK293 cells in resting state with prepulse voltage of -100 mV assessed as blockade of TTx-resistant sodium current at 0.001 uM; type: cell-based
[5] = Activity at rat dorsal root ganglion in resting state with prepulse voltage of -100 mV assessed as blockade of TTx-resistant sodium current at 0.003 uM by whole-cell patch clamp technique; type: functional
[6] = biological target: Sodium channel protein type 2 subunit alpha (Homo sapiens) (UniProt Q99250); assay: Inhibition of human Nav1.2 channel at 0.3 uM
Sequence of Sodium channel protein type 2 subunit alpha (Homo sapiens) (Q99250 whole entry, looked up): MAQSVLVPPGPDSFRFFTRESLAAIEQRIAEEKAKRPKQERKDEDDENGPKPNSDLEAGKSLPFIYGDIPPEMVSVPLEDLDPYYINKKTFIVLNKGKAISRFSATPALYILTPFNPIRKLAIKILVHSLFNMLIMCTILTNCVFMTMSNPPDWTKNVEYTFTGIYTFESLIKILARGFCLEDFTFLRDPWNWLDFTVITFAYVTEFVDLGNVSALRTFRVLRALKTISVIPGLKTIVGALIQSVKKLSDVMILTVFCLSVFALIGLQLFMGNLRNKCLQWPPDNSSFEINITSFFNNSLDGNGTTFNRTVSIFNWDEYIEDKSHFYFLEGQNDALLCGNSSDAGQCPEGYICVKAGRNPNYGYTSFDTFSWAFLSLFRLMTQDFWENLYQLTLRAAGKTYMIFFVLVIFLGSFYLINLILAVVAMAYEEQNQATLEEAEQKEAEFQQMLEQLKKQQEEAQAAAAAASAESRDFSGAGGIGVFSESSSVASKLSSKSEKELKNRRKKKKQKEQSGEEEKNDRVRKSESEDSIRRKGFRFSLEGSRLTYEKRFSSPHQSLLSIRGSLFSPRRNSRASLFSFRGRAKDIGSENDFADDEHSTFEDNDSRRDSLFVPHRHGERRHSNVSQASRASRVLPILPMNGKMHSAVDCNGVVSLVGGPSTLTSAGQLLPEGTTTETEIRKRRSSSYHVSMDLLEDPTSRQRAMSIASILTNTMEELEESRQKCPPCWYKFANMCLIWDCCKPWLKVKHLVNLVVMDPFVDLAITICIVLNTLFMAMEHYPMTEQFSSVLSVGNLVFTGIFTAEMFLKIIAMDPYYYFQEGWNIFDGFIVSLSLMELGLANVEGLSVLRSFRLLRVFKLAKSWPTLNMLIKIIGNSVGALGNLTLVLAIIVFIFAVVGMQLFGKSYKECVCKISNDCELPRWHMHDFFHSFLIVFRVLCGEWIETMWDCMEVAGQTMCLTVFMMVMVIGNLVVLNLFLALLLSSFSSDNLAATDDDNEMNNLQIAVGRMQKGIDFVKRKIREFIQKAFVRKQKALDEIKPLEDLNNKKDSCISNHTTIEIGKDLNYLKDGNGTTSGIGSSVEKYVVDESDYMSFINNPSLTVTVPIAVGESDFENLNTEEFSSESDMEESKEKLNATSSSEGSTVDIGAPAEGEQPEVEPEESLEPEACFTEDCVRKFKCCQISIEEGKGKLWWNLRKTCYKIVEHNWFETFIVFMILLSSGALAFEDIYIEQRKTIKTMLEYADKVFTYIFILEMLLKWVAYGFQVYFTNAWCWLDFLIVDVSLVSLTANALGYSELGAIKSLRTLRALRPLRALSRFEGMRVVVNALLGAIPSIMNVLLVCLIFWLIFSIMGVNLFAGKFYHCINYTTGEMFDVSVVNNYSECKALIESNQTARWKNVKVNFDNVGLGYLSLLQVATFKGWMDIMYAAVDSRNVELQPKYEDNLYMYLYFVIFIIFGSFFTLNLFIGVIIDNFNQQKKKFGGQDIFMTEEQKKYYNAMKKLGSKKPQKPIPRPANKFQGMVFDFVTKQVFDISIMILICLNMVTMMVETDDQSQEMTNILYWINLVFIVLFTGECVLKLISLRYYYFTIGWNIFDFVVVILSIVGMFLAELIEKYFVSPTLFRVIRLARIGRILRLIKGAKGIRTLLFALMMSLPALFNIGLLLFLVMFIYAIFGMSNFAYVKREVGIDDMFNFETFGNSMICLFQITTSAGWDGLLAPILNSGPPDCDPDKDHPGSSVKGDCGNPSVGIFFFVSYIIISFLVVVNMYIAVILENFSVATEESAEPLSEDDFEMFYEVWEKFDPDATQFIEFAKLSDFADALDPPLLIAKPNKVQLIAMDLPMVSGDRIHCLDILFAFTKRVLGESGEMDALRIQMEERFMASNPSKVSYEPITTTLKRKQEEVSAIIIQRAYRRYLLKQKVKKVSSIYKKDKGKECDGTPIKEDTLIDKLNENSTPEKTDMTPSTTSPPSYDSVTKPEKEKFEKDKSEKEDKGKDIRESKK

[7] = biological target: Sodium channel protein type 9 subunit alpha (Homo sapiens) (UniProt Q15858); assay: Inhibition of human Nav1.7 channel at 0.3 uM
[8] = Activity at rat dorsal root ganglion in resting state with prepulse voltage of -100 mV assessed as blockade of TTx-resistant sodium current at 0.03 uM by whole-cell patch clamp technique; type: functional
[9] = biological target: Voltage-gated inwardly rectifying potassium channel KCNH2 (Homo sapiens, UniProt Q12809); assay: Inhibition of hERG potassium channel expressed in CHO cells by isotope efflux assay
Sequence of Voltage-gated inwardly rectifying potassium channel KCNH2 (Q12809 whole entry): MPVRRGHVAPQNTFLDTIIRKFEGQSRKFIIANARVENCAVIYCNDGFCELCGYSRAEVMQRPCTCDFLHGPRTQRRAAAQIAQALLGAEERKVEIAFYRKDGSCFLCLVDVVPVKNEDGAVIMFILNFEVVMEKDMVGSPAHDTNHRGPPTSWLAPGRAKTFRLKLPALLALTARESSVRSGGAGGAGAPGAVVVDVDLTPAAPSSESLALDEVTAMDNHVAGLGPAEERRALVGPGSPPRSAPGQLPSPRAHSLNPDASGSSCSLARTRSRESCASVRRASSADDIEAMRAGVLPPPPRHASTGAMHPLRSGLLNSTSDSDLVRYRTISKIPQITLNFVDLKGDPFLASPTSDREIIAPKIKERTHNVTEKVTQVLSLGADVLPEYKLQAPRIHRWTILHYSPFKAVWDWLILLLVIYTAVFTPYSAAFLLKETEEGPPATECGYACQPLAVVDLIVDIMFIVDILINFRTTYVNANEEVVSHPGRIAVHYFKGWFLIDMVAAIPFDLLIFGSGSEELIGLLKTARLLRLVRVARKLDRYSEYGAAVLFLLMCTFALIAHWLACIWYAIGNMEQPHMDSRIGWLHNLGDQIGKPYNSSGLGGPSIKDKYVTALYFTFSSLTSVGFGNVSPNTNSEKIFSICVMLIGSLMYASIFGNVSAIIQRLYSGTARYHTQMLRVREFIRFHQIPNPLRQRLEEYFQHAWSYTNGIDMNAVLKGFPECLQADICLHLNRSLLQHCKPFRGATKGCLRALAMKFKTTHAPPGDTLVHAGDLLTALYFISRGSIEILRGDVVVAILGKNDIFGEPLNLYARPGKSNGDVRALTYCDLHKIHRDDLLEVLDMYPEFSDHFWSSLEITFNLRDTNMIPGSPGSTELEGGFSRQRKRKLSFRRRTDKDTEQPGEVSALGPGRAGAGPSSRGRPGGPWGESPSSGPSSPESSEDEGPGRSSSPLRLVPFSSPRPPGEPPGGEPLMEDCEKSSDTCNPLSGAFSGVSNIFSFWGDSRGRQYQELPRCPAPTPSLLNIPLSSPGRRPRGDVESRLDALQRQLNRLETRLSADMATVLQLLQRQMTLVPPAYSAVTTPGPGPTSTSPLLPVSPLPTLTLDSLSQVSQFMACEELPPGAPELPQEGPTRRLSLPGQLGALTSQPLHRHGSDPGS

[10] = biological target: Sodium channel protein type 2 subunit alpha (Homo sapiens) (UniProt Q99250); assay: Inhibition of human Nav1.2 channel at 0.03 uM
[11] = Activity at rat dorsal root ganglion in inactivated state with prepulse voltage of -40 mV assessed as blockade of TTx-resistant sodium current at 0.03 uM by whole-cell patch clamp technique; type: functional
[12] = biological target: Sodium channel protein type 3 subunit alpha (Homo sapiens) (UniProt Q9NY46); assay: Inhibition of human Nav1.3 channel at 0.3 uM
[13] = biological target: T1, Sodium channel protein type 10 subunit alpha; assay: Activity at human recombinant Nav 1.8 channel expressed in HEK293 cells in inactivated state with prepulse voltage of -40 mV assessed as blockade of TTx-resistant sodium current at 0.03 uM; type: cell-based
[14] = biological target: T2, Nav1.5 (sodium channel protein type 5 subunit alpha) (Homo sapiens, UniProt Q14524); assay: Inhibition of human Nav1.5 channel at 0.3 uM
T2 sequence (Q14524 whole entry): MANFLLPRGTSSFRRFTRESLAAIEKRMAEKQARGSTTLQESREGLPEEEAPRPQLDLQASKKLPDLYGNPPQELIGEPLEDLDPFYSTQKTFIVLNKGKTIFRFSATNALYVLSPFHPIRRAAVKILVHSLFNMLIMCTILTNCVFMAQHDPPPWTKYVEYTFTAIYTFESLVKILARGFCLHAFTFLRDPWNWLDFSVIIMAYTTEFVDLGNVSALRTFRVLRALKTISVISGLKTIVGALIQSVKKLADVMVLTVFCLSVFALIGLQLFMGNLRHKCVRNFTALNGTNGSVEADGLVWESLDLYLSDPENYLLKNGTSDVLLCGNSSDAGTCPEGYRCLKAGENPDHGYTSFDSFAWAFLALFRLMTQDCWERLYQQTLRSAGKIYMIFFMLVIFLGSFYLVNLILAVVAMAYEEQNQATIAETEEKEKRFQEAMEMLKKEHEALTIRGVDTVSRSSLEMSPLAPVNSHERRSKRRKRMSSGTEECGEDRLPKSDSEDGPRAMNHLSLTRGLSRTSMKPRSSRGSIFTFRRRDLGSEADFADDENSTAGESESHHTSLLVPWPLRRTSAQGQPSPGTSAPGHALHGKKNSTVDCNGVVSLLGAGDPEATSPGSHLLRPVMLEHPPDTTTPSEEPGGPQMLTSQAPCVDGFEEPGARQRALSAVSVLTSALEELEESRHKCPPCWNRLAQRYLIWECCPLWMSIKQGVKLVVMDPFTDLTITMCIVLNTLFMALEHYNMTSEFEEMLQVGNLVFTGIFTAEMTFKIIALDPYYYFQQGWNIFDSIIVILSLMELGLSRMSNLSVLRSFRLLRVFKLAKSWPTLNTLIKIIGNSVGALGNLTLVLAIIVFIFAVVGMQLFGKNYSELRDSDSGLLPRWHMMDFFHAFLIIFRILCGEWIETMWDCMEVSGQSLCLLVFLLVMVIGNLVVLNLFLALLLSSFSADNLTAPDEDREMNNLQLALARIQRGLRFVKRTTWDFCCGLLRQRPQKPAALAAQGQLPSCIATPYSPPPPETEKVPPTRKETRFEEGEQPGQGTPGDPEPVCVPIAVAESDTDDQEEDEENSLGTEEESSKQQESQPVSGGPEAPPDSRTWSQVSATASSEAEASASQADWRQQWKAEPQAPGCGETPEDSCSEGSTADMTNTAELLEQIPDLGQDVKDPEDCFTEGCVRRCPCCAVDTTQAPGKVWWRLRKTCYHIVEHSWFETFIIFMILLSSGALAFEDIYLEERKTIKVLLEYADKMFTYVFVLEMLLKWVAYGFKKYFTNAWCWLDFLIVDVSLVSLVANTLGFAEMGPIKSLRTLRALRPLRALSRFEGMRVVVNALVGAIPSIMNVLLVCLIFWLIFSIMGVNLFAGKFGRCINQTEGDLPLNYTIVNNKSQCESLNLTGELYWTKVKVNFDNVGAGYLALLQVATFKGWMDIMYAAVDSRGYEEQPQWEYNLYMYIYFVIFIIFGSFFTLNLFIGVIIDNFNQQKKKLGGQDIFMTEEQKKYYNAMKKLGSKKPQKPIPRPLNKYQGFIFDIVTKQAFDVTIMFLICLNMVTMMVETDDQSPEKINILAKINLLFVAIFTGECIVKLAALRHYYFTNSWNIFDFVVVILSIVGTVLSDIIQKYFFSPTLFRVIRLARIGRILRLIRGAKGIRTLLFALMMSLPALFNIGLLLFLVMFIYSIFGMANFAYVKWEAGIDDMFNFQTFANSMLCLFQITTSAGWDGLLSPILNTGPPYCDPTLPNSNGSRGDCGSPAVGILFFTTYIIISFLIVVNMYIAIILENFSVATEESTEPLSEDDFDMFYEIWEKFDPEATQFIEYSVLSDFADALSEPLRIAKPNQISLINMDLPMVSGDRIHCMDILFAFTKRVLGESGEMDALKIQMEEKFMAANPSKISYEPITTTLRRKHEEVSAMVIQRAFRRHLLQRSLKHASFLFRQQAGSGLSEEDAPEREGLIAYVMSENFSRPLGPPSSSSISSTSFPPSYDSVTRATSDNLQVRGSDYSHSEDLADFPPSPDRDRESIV

[15] = biological target: T2, Nav1.5 (sodium channel protein type 5 subunit alpha); assay: Inhibition of human Nav1.5 channel at 0.03 uM
[16] = biological target: T1, Sodium channel protein type 10 subunit alpha; assay: Inhibition of human recombinant Nav 1.8 channel expressed in HEK293 cells at 0.001 uM; type: cell-based
[17] = biological target: T1, Sodium channel protein type 10 subunit alpha; assay: Activity at human recombinant Nav 1.8 channel expressed in HEK293 cells in resting state with prepulse voltage of -100 mV assessed as blockade of TTx-resistant sodium current at 0.03 uM; type: cell-based
[18] = biological target: T1, Sodium channel protein type 10 subunit alpha; assay: Activity at human recombinant Nav 1.8 channel expressed in HEK293 cells in inactivated state with prepulse voltage of -40 mV assessed as blockade of TTx-resistant sodium current at 0.001 uM; type: cell-based
[19] = Aqueous solubility of the compound; type: physicochemical
[20] = biological target: T1, Sodium channel protein type 10 subunit alpha; assay: Activity at human recombinant Nav 1.8 channel expressed in HEK293 cells in resting state with prepulse voltage of -100 mV assessed as blockade of TTx-resistant sodium current at 0.1 uM; type: cell-based
[21] = Activity at rat dorsal root ganglion in resting state with prepulse voltage of -100 mV assessed as blockade of TTx-resistant sodium current at 0.1 uM by whole-cell patch clamp technique; type: functional
[22] = biological target: T1, Sodium channel protein type 10 subunit alpha; assay: Inhibition of human recombinant Nav 1.8 channel expressed in HEK293 cells at 0.1 uM; type: cell-based
[23] = biological target: T1, Sodium channel protein type 10 subunit alpha; assay: Activity at human recombinant Nav 1.8 channel expressed in HEK293 cells in inactivated state with prepulse voltage of -40 mV assessed as blockade of TTx-resistant sodium current at 0.1 uM; type: cell-based
[24] = biological target: Sodium channel protein type 9 subunit alpha (Homo sapiens) (UniProt Q15858); assay: Inhibition of human Nav1.7 channel at 3 uM
[25] = biological target: Sodium channel protein type 2 subunit alpha (Homo sapiens) (UniProt Q99250); assay: Inhibition of human Nav1.2 channel at 1 uM
[26] = Activity at rat dorsal root ganglion in inactivated state with prepulse voltage of -40 mV assessed as blockade of TTx-resistant sodium current at 0.3 uM by whole-cell patch clamp technique; type: functional
[27] = biological target: Sodium channel protein type 3 subunit alpha (Homo sapiens) (UniProt Q9NY46); assay: Inhibition of human Nav1.3 channel at 3 uM
[28] = Activity at rat dorsal root ganglion in resting state with prepulse voltage of -100 mV assessed as blockade of TTx-resistant sodium current at 0.3 uM by whole-cell patch clamp technique; type: functional
[29] = biological target: T2, Nav1.5 (sodium channel protein type 5 subunit alpha); assay: Inhibition of human Nav1.5 channel at 3 uM
[30] = biological target: Sodium channel protein type 2 subunit alpha (Homo sapiens) (UniProt Q99250); assay: Inhibition of human Nav1.2 channel at 3 uM
[31] = Activity at rat dorsal root ganglion in inactivated state with prepulse voltage of -40 mV assessed as blockade of TTx-resistant sodium current at 0.1 uM by whole-cell patch clamp technique; type: functional
[32] = biological target: Sodium channel protein type 3 subunit alpha (Homo sapiens) (UniProt Q9NY46); assay: Inhibition of human Nav1.3 channel at 1 uM
[33] = biological target: T1, Sodium channel protein type 10 subunit alpha; assay: Activity at human recombinant Nav 1.8 channel expressed in HEK293 cells in inactivated state with prepulse voltage of -40 mV assessed as blockade of TTx-resistant sodium current at 0.3 uM; type: cell-based
[34] = biological target: T1, Sodium channel protein type 10 subunit alpha; assay: Inhibition of human recombinant Nav 1.8 channel expressed in HEK293 cells at 0.3 uM; type: cell-based
[35] = biological target: T1, Sodium channel protein type 10 subunit alpha; assay: Activity at human recombinant Nav 1.8 channel expressed in HEK293 cells in resting state with prepulse voltage of -100 mV assessed as blockade of TTx-resistant sodium current at 0.3 uM; type: cell-based
[36] = biological target: T1, Sodium channel protein type 10 subunit alpha; assay: Activity at human recombinant Nav 1.8 channel expressed in HEK293 cells in resting state with prepulse voltage of -100 mV assessed as blockade of TTx-resistant sodium current at 1 uM; type: cell-based
[37] = biological target: T2, Nav1.5 (sodium channel protein type 5 subunit alpha); assay: Inhibition of human Nav1.5 channel at 1 uM; conditions: human
[38] = Activity at rat dorsal root ganglion in inactivated state with prepulse voltage of -40 mV assessed as blockade of TTx-resistant sodium current at 10 uM by whole-cell patch clamp technique; type: functional
[39] = Activity at rat dorsal root ganglion in resting state with prepulse voltage of -100 mV assessed as blockade of TTx-resistant sodium current at 1 uM by whole-cell patch clamp technique; type: functional
[40] = biological target: T1, Sodium channel protein type 10 subunit alpha; assay: Activity at human recombinant Nav 1.8 channel expressed in HEK293 cells in inactivated state with prepulse voltage of -40 mV assessed as blockade of TTx-resistant sodium current at 1 uM; type: cell-based
[41] = Activity at rat dorsal root ganglion in inactivated state with prepulse voltage of -40 mV assessed as blockade of TTx-resistant sodium current at 1 uM by whole-cell patch clamp technique; type: functional
[42] = biological target: T1, Sodium channel protein type 10 subunit alpha; assay: Inhibition of human recombinant Nav 1.8 channel expressed in HEK293 cells at 1 uM; type: cell-based
[43] = Activity at rat dorsal root ganglion in resting state with prepulse voltage of -100 mV assessed as blockade of TTx-resistant sodium current at 10 uM by whole-cell patch clamp technique; type: functional
[44] = biological target: T1, Sodium channel protein type 10 subunit alpha; assay: Inhibition of human recombinant Nav 1.8 channel expressed in HEK293 cells at 3 uM; type: cell-based
[45] = biological target: T1, Sodium channel protein type 10 subunit alpha; assay: Activity at human recombinant Nav 1.8 channel expressed in HEK293 cells in resting state with prepulse voltage of -100 mV assessed as blockade of TTx-resistant sodium current at 3 uM; type: cell-based
[46] = biological target: T1, Sodium channel protein type 10 subunit alpha; assay: Activity at human recombinant Nav 1.8 channel expressed in HEK293 cells in inactivated state with prepulse voltage of -40 mV assessed as blockade of TTx-resistant sodium current at 3 uM; type: cell-based
[47] = biological target: T1, Sodium channel protein type 10 subunit alpha; assay: Activity at human recombinant Nav 1.8 channel expressed in HEK293 cells in inactivated state with prepulse voltage of -40 mV assessed as blockade of TTx-resistant sodium current at 0.003 uM; type: cell-based
[48] = biological target: T1, Sodium channel protein type 10 subunit alpha; assay: Inhibition of human recombinant Nav 1.8 channel expressed in HEK293 cells at 0.003 uM; type: cell-based
[49] = biological target: Sodium channel protein type 2 subunit alpha (Homo sapiens) (UniProt Q99250); assay: Inhibition of human Nav1.2 channel at 0.1 uM
[50] = biological target: T2, Nav1.5 (sodium channel protein type 5 subunit alpha); assay: Inhibition of human Nav1.5 channel at 0.1 uM
[51] = biological target: T1, Sodium channel protein type 10 subunit alpha; assay: Activity at human recombinant Nav 1.8 channel expressed in HEK293 cells in resting state with prepulse voltage of -100 mV assessed as blockade of TTx-resistant sodium current at 0.003 uM; type: cell-based

CN1CCOc2cc(NC(=O)c3ccc(-c4ccc(Cl)cc4)o3)ccc21
IC50 [1]: 970 nM

Cc1cccc(N/C(=N/C#N)c2ccc(-c3ccc(Cl)cc3)o2)c1
inhibition [2]: 99% | inhibition at 0.003 µM [3]: 51% | inhibition [4]: 46% | inhibition at 0.003 µM [5]: 22% | inhibition [6]: 94% | inhibition [7]: 70% | inhibition at 0.03 µM [8]: 45% | IC50 [9]: > 30000 nM | inhibition [10]: 91% | IC50 [1]: 30 nM | inhibition at 0.03 µM [11]: 71% | inhibition [12]: 24% | inhibition [13]: 99% | inhibition at 0.3 µM [14]: 69% | inhibition at 0.03 µM [15]: 32% | inhibition [16]: 76% | inhibition [17]: 94% | inhibition [18]: 76%

Cc1ccccc1CNC(=O)c1ccc(-c2ccc(Cl)cc2)o1
IC50 [1]: 1100 nM

Cc1cccc(NC(=O)c2ccc(-c3ccc(Cl)cc3)o2)c1
inhibition [2]: 68% | solubility [19]: < 0.1 µg/mL | inhibition [20]: 67% | inhibition at 0.1 µM [21]: 3% | inhibition [22]: 77% | IC50 [9]: 27000 nM | inhibition [23]: 77% | IC50 [1]: 480 nM | inhibition [24]: 41% | inhibition [13]: 68% | inhibition [25]: 33% | inhibition at 0.3 µM [26]: 60% | inhibition [27]: 61% | inhibition at 0.3 µM [28]: 18% | inhibition at 3 µM [29]: 51% | inhibition [30]: 54% | inhibition [17]: 61% | inhibition at 0.1 µM [31]: 37% | inhibition [32]: 17%

CN1CCCc2cc(NC(=O)c3ccc(-c4ccc(Cl)cc4)o3)ccc21
inhibition [2]: 55% | inhibition at 0.003 µM [3]: 44% | inhibition at 0.003 µM [5]: 31% | inhibition [33]: 70% | IC50 [9]: 5300 nM | IC50 [1]: 2900 nM | inhibition at 0.03 µM [11]: 79% | inhibition [24]: 44% | inhibition [13]: 56% | inhibition [27]: 37% | inhibition at 0.3 µM [28]: 28% | inhibition at 3 µM [29]: 71% | inhibition [34]: 70% | inhibition [30]: 38% | inhibition [17]: 27% | inhibition [35]: 66%

O=C(Nc1cccc(C2=NCCO2)c1)c1ccc(-c2ccc(Cl)cc2)o1
IC50 [1]: 2500 nM

Cc1cc(NC(=O)c2ccc(-c3ccc(Cl)cc3)o2)ccn1
IC50 [1]: 2500 nM

Cc1cccc(NC(=O)c2ccc(-c3cccc(C(F)(F)F)c3)o2)c1
IC50 [1]: 7500 nM

Cc1ccnc(NC(=O)c2ccc(-c3ccc(Cl)cc3)o2)c1
inhibition [36]: 58% | IC50 [9]: > 30000 nM | inhibition at 1 µM [37]: 24% | inhibition at 10 µM [38]: 88% | inhibition at 1 µM [39]: 9% | inhibition [40]: 42% | IC50 [1]: 960 nM | inhibition at 1 µM [41]: 36% | inhibition [25]: 12% | inhibition [42]: 42% | inhibition at 10 µM [43]: 88% | inhibition [44]: 81% | inhibition [45]: 83% | inhibition [46]: 81% | inhibition [32]: 5%

Cc1cccc(NC(=O)c2ccc(-c3ccc(OC(F)(F)F)cc3)o2)c1
inhibition [4]: 7% | inhibition at 0.1 µM [21]: 25% | inhibition [47]: 73% | IC50 [9]: > 30000 nM | inhibition at 1 µM [37]: 87% | inhibition [48]: 73% | IC50 [1]: 290 nM | inhibition [49]: 47% | inhibition [25]: 84% | inhibition at 0.3 µM [26]: 63% | inhibition at 0.3 µM [28]: 30% | inhibition at 0.1 µM [50]: 52% | inhibition [51]: 33% | inhibition at 0.1 µM [31]: 40% | inhibition [18]: 40%

O=C(Nc1ccc2cc[nH]c2c1)c1ccc(-c2ccc(Cl)cc2)o1
IC50 [1]: 3100 nM

Cc1cccc(NC(=O)c2cc(-c3ccc(Cl)cc3)co2)c1
IC50 [1]: 5300 nM
